Laboratory results published in US20100021940A1, “Method for Determining the Activity of a Protease in a Sample” (ASTRAZENECA AB, priority 2006, published 2010).
Several values for one entry are separate records, joined by “and”; a condition that tells them apart may be missing. Identical values can stand only once.

Tests used:
MMPs = assay: Cleavage of separated diastereomers by MMPs to liberate the reporter; assay type: biochemical
MMP = MMP activity in synovial fluid (reporter release, HPLC); assay type: biochemical, human
Procedure: Synovial fluid (SF) was obtained from patients with rheumatoid arthritis (7 subjects) and systemic lupus erythematosus (SLE) (1 subject).
The amount of each sample was adjusted so that approximately 4 mg of total protein was used in the assay (Table 13).
The samples were made up to 180 μl with a buffer consisting of 50 mM Tricine pH 7.5, 200 mM NaCl, 10 mM CaCl2, 20 μM ZnCl2 and 0.05% Brij-35.
To the samples was added 20 μl of the substrate Methyl 1-acetyl-L-prolyl-L-leucylglycyl-α-R-(4-nitrophenylamino)-glycyl-L-leucylglycinate (Example 1.2) solution (10 mM in methanol). After 3 h incubation at 37° C., the reaction was stopped with 5 μl 200 mM EDTA. The samples were filtered through a precolumn (Waters OASIS HLB Icc, part no. 94225, pre-conditioned with 1 ml of ethanol followed by 1 ml water) which was eluted with 1 ml water and 1 ml of 90% ethanol. The samples were evaporated to dryness under a stream of nitrogen, redissolved in 200 μl 50% ethanol and vigorously mixed with vortex mixer and centrifuged (1000 g, 2 min). Of the supernatant, 10-160 μl aliquots were analysed for the reporter 4-nitroaniline with HPLC (detection as in example 3 or with UV at […]). A standard curve was obtained by from samples spiked with quantified amounts of the reporter (4NA) and treated in the same way as the analytical samples.

MMP1 = target: T1, MMP1 (Homo sapiens, UniProt P03956); assay: Activity of purified MMP on substrate (reporter release); assay type: biochemical; details: Table 1b; MMP1
T1 sequence (P03956 100-469): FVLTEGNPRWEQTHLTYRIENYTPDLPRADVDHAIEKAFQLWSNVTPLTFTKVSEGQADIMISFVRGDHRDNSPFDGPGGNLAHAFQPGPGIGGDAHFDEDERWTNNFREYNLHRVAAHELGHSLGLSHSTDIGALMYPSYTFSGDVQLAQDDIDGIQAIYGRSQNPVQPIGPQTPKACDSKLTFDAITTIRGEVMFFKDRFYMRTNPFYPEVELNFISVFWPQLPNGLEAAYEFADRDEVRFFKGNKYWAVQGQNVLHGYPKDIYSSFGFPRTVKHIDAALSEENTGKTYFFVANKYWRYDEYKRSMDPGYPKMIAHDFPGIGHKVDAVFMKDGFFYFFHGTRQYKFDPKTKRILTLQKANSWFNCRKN
Text: (§1) In order to confirm the specificity of the substrates for various MMPs, standard enzymatic assays were adapted to monitor the release of reporter. The reporter was either analysed by a LC-MS method as described in Example 3a, or by a LC-UV method as described in Example 4. A protocol for testing against other matrix metalloproteinases, including MMP9, using expressed and purified pro MMP is described, for instance, by C.

MMP3 = MMP3 (Homo sapiens, UniProt P08254); assay: as above; assay type: biochemical; details: Table 1b; MMP3
Text: as §1

MMP8 = target: T2, MMP8 (Homo sapiens, UniProt P22894); assay: as above; assay type: biochemical; details: Table 1b; MMP8
T2 construct: purchased Calbiochem
Procedure: In order to confirm the specificity of the substrates for various MMPs, standard enzymatic assays were adapted to monitor the release of reporter. The reporter was either analysed by a LC-MS method as described in Example 3a, or by a LC-UV method as described in Example 4. Purified pro-MMP8 is purchased from Calbiochem. The enzyme (at 10 μg/ml) is activated by p-amino-phenyl-mercuric acetate (APMA) at 1 mM for 2.5 h, 35° C. The activated enzyme can be used to monitor activity of substrates as follows: MMP8 (200 ng/ml final concentration) is incubated for 90 minutes at 35° C.

MMP9 = assay: as above; assay type: biochemical, human; details: Table 1b; MMP9
Text: In order to confirm the specificity of the substrates for various MMPs, standard enzymatic assays were adapted to monitor the release of reporter. The reporter was either analysed by a LC-MS method as described in Example 3a, or by a LC-UV method as described in Example 4. […] The enzyme can be used to monitor activity of substrates as follows: […]

T2 sequence (P22894 101-467): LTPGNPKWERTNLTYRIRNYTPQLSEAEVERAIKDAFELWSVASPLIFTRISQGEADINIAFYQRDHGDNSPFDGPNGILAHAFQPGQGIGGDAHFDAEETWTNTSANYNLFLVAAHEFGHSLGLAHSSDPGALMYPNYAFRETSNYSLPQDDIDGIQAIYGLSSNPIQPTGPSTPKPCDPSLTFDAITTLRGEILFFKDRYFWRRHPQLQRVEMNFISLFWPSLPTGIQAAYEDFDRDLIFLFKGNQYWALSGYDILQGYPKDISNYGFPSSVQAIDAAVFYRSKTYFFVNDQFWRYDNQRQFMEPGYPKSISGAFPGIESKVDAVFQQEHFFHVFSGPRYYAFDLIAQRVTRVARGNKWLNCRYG
MMP3, sequence (P08254 100-477): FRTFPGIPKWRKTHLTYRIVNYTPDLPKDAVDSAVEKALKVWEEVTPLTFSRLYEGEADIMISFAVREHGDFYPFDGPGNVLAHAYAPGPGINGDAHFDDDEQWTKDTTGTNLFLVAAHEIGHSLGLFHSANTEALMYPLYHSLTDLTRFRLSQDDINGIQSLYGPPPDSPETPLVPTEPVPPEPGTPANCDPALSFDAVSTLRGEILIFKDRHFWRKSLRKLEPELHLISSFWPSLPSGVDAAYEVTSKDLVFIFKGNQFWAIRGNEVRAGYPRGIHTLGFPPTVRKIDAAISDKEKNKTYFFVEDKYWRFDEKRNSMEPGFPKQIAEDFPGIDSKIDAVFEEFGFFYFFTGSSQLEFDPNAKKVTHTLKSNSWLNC

Activity of selected substrates with MMPs (MMP1)	Activity of selected substrates with MMPs (MMP3)	Activity of selected substrates with MMPs (MMP8)	SMILES	Cleavage by MMPs to liberate the reporter (MMPs)	4NA released (MMP activity in synovial fluid) (MMP; synovial fluid of individual subjects (rheumatoid arthritis, SLE), approx. 4 mg total protein, 3 h at 37° C.)	Activity of selected substrates with MMPs (MMP9)	release of reporter 4-biphenylmethanol (MMP; pooled sample of synovial fluid from all subjects in Table 13, same procedure) [nmol/ml SF]
			COC(=O)CNC(=O)[C@H](CC(C)C)NC(=O)[C@@H](NC(=O)CNC(=O)[C@H](CC(C)C)NC(=O)[C@@H]1CCCN1C(C)=O)Nc1ccc([N+](=O)[O-])cc1 [Example 1.2, Methyl 1-acetyl-L-prolyl-L-leucylglycyl-α-R-(4-nitrophenylamino)-glycyl-L-leucylglycinate]	rapidly cleaved by MMPs	94.4 nmol/ml SF and 17.4 nmol/ml SF and 15.9 nmol/ml SF and 23.9 nmol/ml SF and 26.4 nmol/ml SF and 16.5 nmol/ml SF and 20.6 nmol/ml SF and 12.0 nmol/ml SF		
35.4 units/s (molRXH/molEnz * s)	5.5 units/s (molRXH/molEnz * s)	26.9 units/s (molRXH/molEnz * s)	COC(=O)CNC(=O)[C@H](CC(C)C)NC(=O)[C@@H](NC(=O)CNC(=O)[C@H](CC(C)C)NC(=O)[C@@H]1CCCN1C(C)=O)OCc1ccc(-c2ccccc2)cc1 (single isomer, unassigned) [Example 1.3, Methyl 1-acetyl-L-prolyl-L-leucylglycyl-α-S-(biphenyl-4-ylmethoxy)-glycyl-L-leucylglycinate]	rapidly cleaved by MMPs		63.6 units/s (molRXH/molEnz * s)	33.2
2.48 units/s (molRXH/molEnz * s)	0.18 units/s (molRXH/molEnz * s)	11.4 units/s (molRXH/molEnz * s)	CC(=O)N1CCC[C@H]1C(=O)N[C@@H](CC(C)C)C(=O)NCC(=O)N[C@@H](Nc1ccc([N+](=O)[O-])cc1)C(=O)N[C@@H](Cc1ccccc1)C(=O)Nc1ccccc1 [Example 1.5, 1-acetyl-L-prolyl-L-leucylglycyl-α-R-(4-nitrophenylamino)-glycyl-N-phenyl-L-phenylalaninamide]	rapidly cleaved by MMPs		11.5 units/s (molRXH/molEnz * s)	

SMILES	Activity of selected substrates with MMPs (MMP1)	Activity of selected substrates with MMPs (MMP3)	Activity of selected substrates with MMPs (MMP8)	Cleavage by MMPs to liberate the reporter (MMPs)	4NA released (MMP activity in synovial fluid) (MMP; synovial fluid of individual subjects (rheumatoid arthritis, SLE), approx. 4 mg total protein, 3 h at 37° C.)	Activity of selected substrates with MMPs (MMP9)	release of reporter 4-biphenylmethanol (MMP; pooled sample of synovial fluid from all subjects in Table 13, same procedure) [nmol/ml SF]
COC(=O)CNC(=O)[C@H](CC(C)C)NC(=O)[C@@H](NC(=O)CNC(=O)[C@H](CC(C)C)NC(=O)[C@@H]1CCCN1C(C)=O)Nc1ccc(-c2nnc(-c3ccc(C)cc3)o2)cc1 [Example 1.4, Methyl 1-acetyl-L-prolyl-L-leucylglycyl-α-R-[4-(5-p-tolyl-[1,3,4]oxadiazol-2-yl)-phenylamino]-glycyl-L-leucylglycinate]	0.00 units/s (molRXH/molEnz * s)	0.00 units/s (molRXH/molEnz * s)	0.05 units/s (molRXH/molEnz * s)	rapidly cleaved by MMPs		0.58 units/s (molRXH/molEnz * s)	
